Literature values as cited in US20060182688A1, “Metronidazole-based tinted topical pharmaceutical compositions” (GALDERMA S.A., priority 2003, published 2006).

System: rosacea

Structure (SMILES): Cc1ncc([N+](=O)[O-])n1CCO [metronidazole, 1-(2-hydroxyethyl)-2-methyl-5-nitroimidazole]
- effect on erythema (200 mg twice a day): ineffective
- effect on the papules and pustules of rosacea (200 mg twice a day): had therapeutic effects
- action on the clinical signs such as erythema, telangiectasia or redness (rosacea): no action
- effect against the papules and pustules (rosacea): effective
- effect on the inflammatory lesions (rosacea): effectively improves
